One series can be described thus: pH solubility. Format: physicochemical. The note with it: for solubility: thermodynamic from solid. Here is the method: Solubility in water is 0.66 mg/mL with a natural pH of 8.9.
A short description of series [1]: Storage stability of micronized material (PXRD, DSC). Format: physicochemical. The following applies: 3 months at 40° C./20% RH, 50° C./ambient humidity. On the procedure: For reference, the particle size of the input crystalline freebase Form III was X10=5.58 μm X50=18.2 μm, and X90=49.7 μm. Micronization yielded particles in the respirable size range.
There was an additional small thermal event in the micronized material at 87° C., likely due to crystallization.

Series [2] is described as follows: Exposure to atmospheric moisture, elevated temperature and humidity. Format: physicochemical.
The nature of series [3]: Micronization, particle size by laser light diffraction. It is filed as physicochemical. The source says: Samples of the crystalline freebase Form III were micronized using either an APTM 4″ micronizer and the particle size determined buy laser light diffraction.
The next series is described as follows: Solution stability. It is filed as physicochemical. Here is the method:
The crystalline freebase Form III solutions are stable in pH 4 and pH 6 buffers for up to 7 days at 50° C. or exposed to light. The solutions are stable in water and saline for 7 days at room temperature, protected from light.

The nature of series [4]: Gravimetric vapor sorption assessment. Format: physicochemical. Here is the method: Gravimetric vapor sorption (GVS) studies were performed using a Surface
Measurements System DVS-1 instrument for generation of full sorption isotherm using water vapor perfusion at 25° C. A sample size of approximately 7 mg was placed into a clean and dry tared sample mesh pan and weighed using the internal balance. The target relative humidity (RH) ranges were from 30% to 90%, then 90% to 0% and 0% to 30% with 10% steps. The point of equilibrium was automatically determined using a 0.02 dm/dt asymptote setting.

Series [5] has as its target T1, M3 muscarinic receptor subtype (Homo sapiens, UniProt P20309).
T1 construct: expressed in transfected cells
Description: Radioligand binding assay ([3H]-NMS displacement) on muscarinic receptor subtypes. The following applies: this or a similar assay. On the procedure:
CHO cell lines stably expressing cloned human hM1, hM2, hM3 and hM4 muscarinic receptor subtypes, respectively, were grown to near confluency in medium consisting of HAM's F-12 supplemented with 10% FBS and 250 μg/mL Geneticin. The cells were grown in a 5% CO2, 37° C. incubator and lifted with 2 mM EDTA in dPBS. Cells were collected by 5 minute centrifugation at 650×g, and cell pellets were either stored frozen at −80° C. or membranes were prepared immediately. For membrane preparation, cell pellets were resuspended in lysis buffer and homogenized with a Polytron PT-2100 tissue disrupter (Kinematica AG; 20 seconds×2 bursts). Crude membranes were centrifuged at 40,000×g for 15 minutes at 4° C. […] The protein concentration of the membrane suspension was determined by the method described in Lowry, O. et al.,Journal of Biochemistry 193:265 (1951). […]
Radioligand binding assays were performed in 96-well microtiter plates in a total assay volume of […]. […] Filter plates were rinsed three times with wash buffer (10 mM HEPES) to remove unbound radioactivity. […] The plates were then counted in a PerkinElmer Topcount liquid scintillation counter (PerkinElmer Inc., Wellesley, Mass.). Binding data were analyzed by nonlinear regression analysis with the GraphPad Prism Software package (GraphPad Software, Inc., San Diego, Calif.) using the one-site competition model. […]

The target in a further series is T2, hM3 receptor (Homo sapiens, UniProt P20309).
T2 construct: expressed in transfected cells
The series is described as follows: Blockade of agonist-mediated calcium release via FLIPR. It is filed as cell-based. The following applies: CHO cells stably expressing the hM3 receptor. The source says:
Muscarinic receptor subtypes (M1, M3 and M5 receptors), which couple to Gq proteins, activate the phospholipase C (PLC) pathway upon agonist binding to the receptor. As a result, activated PLC hydrolyzes phosphatyl inositol diphosphate (PIP2) to diacylglycerol (DAG) and […] (IP3), which in turn generates calcium release from intracellular stores, i.e., endoplasmic and sarcoplasmic reticulum. The FLIPR (Molecular Devices, Sunnyvale, Calif.) assay capitalizes on this increase in intracellular calcium by using a calcium sensitive dye (Fluo-4AM, Molecular Probes, Eugene, Oreg.) that fluoresces when free calcium binds. This fluorescence event is measured in real time by the FLIPR, which detects the change in fluorescence from a monolayer of cells cloned with human M1 and M3, and chimpanzee M5 receptors. Antagonist potency can be determined by the ability of antagonists to inhibit agonist-mediated increases in intracellular calcium. […]
To determine antagonist potency, the dose-dependent stimulation of intracellular Ca^2+ release for oxotremorine is first determined so that antagonist potency can later be measured against oxotremorine stimulation at an EC90 concentration. […]
The change of fluorescence is expressed as maximum fluorescence minus baseline fluorescence for each well. […]

The test system of another series is MCh response. The series is described as follows: Rat Einthoven assay (bronchoprotection against MCh). The note with it: for ID50: 1.5 hrs post-dose, inhalation. Format: in vivo. Here is the method: All test compounds are diluted in sterile water and are dosed via the inhalation route (IH). […] Each test compound solution is nebulized over a 10 minute time period in a pie shaped dosing chamber capable of holding six rats. At predetermined time points after inhalation of compound, the Einthoven assay is performed. […] The jugular vein is catheterized with saline filled polyethylene catheters (PE-50) and used to infuse MCh. The trachea is then dissected and cannulated with a 14G needle and used for rat ventilation during pulmonary evaluation. Once surgery is complete, rats are ventilated using a piston respirator set at a stroke volume of 1 ml/100 g body weight but not exceeding 2.5 ml volume, and at a rate of 90 strokes per minute. The changes in pressure that occur with each breath are measured. […] The MCh is infused for 2.5 minutes from a syringe pump at a rate of 2 mL/kg/min. The animals are euthanized upon completion of the studies. Changes in ventilation pressure (cm H2O) in treated animals are expressed as % inhibition of MCh response relative to control animals.

Series [6] relates to pilocarpine-induced salivation. The series is described as follows: Rat antisialagogue assay. It is filed as in vivo. The following applies: evaluated at 1, 6 and 24 hr post-dose. Here is the method: Rats (Sprague-Dawley, male, 250-350 g) are dosed, anesthetized and cannulated as described for Assay 3. At predetermined time points and after surgery, animals are placed on their dorsal side at a 20° incline with their head in a downward slope. A pre-weighed gauze pad is inserted in the animal's mouth and the muscarinic agonist pilocarpine (PILO) (3 mg/kg, iv.) is administered. Saliva produced during 10 minutes post-PILO is measured gravimetrically by determining the weight of the gauze pad before and after PILO. Antisialagogue effects are expressed as % inhibition of salivation relative to control animals.
The rat antisialagogue assay was developed to assess systemic exposure and calculate the lung selectivity index (LSI) of test compounds. The standard, tiotropium, was evaluated in this model at 1, 6, and 24 hr post-dose. […] This finding is consistent with the peak effects observed in the Einthoven assay.
This model is a modified version of the procedure described in Rechter, “Estimation of anticholinergic drug effects in mice by antagonism against pilocarpine-induced salivation” Ata Pharmacol Toxicol 24:243-254 (1996). The mean weight of saliva in vehicle-treated animals, at each pre-treatment time, is calculated and used to compute % inhibition of salivation, at the corresponding pre-treatment time, at each dose.

The mark [7] stands for this setting: input material before micronization.

Data on five molecules can be found in patent publication US11649209B2, “Crystalline freebase forms of a biphenyl compound” (THERAVANCE BIOPHARMA R&D IP, LLC, priority 2009, dated 2023).

In brackets after ≈: the same amount, converted by molar mass. Like-named read-outs stand apart in the source and are kept apart here.

T2 sequence (P20309 whole entry): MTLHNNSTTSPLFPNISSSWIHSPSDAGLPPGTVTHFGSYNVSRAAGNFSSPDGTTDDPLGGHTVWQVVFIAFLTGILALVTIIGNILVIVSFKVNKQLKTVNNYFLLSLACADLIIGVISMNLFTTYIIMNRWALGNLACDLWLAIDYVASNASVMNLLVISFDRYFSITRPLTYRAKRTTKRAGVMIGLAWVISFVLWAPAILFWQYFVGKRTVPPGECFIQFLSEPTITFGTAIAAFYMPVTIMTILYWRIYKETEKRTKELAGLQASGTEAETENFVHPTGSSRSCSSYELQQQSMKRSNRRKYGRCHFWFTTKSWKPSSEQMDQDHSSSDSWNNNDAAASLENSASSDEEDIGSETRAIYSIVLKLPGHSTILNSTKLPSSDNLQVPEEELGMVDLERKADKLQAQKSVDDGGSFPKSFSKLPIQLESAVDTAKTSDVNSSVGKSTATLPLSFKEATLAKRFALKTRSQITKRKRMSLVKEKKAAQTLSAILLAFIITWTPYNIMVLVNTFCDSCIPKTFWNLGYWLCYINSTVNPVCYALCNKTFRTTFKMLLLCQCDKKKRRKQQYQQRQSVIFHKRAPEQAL
T1 sequence (P20309 whole entry): as above

For the molecule `CN(CCN1CCC(OC(=O)Nc2ccccc2-c2ccccc2)CC1)C(=O)c1ccc(CN2CCC(C(N)=O)CC2)cc1` [Form III, Biphenyl-2-ylcarbamic Acid 1-(2-{[4-(4-Carbamoylpiperidin-1-ylmethyl)benzoyl]methylamino}ethyl)piperidin-4-yl Ester], the solubility is above 2000 µg/mL in “pH solubility” (aqueous buffer, in media up to pH 7, read-out: Solubility); 460 µg/mL (≈ 770 µM) in the series “pH solubility” (simulated lung fluid, fassgf or other biorelevant, no change between 4 hour and 24 hour measurements, read-out: Solubility in simulated lung fluid); 660 µg/mL (≈ 1100 µM) in “pH solubility” (water, pH 8.9, water, natural pH of 8.9, read-out: Solubility in water). Further, the “natural pH in water” value in “pH solubility” (at solubility in water) was determined as 8.9. For the same molecule, in series [1] (40° C./75% RH (uncapped)), the “change in PXRD after storage” value is reported as “No changes were observed”. Also, the “amorphous content by DSC after storage” value in series [1] (40° C./75% RH naked) was “no evidence of amorphous content”. In series [2], the “stability upon exposure to elevated temperature and humidity” value was “stable”. Also, the “Particle size X10” value in series [3] (setting [7]) is reported as 5.58 μm; in series [3] (micronized material), 1.27 μm. In addition, the entries for the “Particle size X50” value in [3] (setting [7]) and in series [3] (micronized material) were 18.2 μm and 2.69 μm, respectively. In addition, the “Particle size X90” value in series [3] (setting [7]) stood at 49.7 μm; in series [3] (micronized material), 5.25 μm. Besides, the “solution stability in water and saline” value in “Solution stability” (7 days at room temperature, protected from light) is “stable”. For the same molecule, the “solution stability in buffers” value in the series “Solution stability” (pH 4 and pH 6 buffers, up to 7 days at 50° C. or exposed to light) is “stable”. Also, the reversible water uptake is listed as below 2 % w/w in series [4] (between 0 and 90% RH at 25° C.); below 2 % wt/wt in [4] (between 0 and 90% relative humidity at 25° C.).
Take `CN(CCN1CCC(OC(=O)Nc2ccccc2-c2ccccc2)CC1)C(=O)c1ccc(CN2CCC(C(N)=O)CC2)cc1` [compound of formula I, biphenyl-2-ylcarbamic acid 1-(2-{[4-(4-carbamoylpiperidin-1-ylmethyl)benzoyl]methylamino}ethyl)piperidin-4-yl ester]: the Ki (in [5]; at hM3 receptor) was below 5 nM throughout.
Take `C[N+]1(C)CCC(OC(=O)C(O)(c2ccccc2)C2CCCC2)C1` (centres unmarked) [glycopyrrolate]: the ID50 in the series with MCh response was determined as 15 µg/mL.
For `CC(C)[N+]1(C)[C@@H]2CC[C@H]1C[C@@H](OC(=O)C(CO)c1ccccc1)C2` (some centres unmarked) [ipratropium], the “fold less potent 6-hr post-dose compared to 1.5 hr potency” value with MCh response (10 and 30 μg/ml, 6 hr post-dose) is reported as “about 3 fold”. Also, in the series on MCh response, the ID50 came out at 4.4 µg/mL.
For the molecule `C[N+]1(C)[C@@H]2C[C@@H](OC(=O)C(O)(c3cccs3)c3cccs3)C[C@H]1[C@@H]1O[C@@H]12` [tiotropium], the “time post dose of highest potency at inhibiting pilocarpine-induced salivation” value in series [6] is 6 h. In addition, in the series with MCh response, the ID50 was 6 µg/mL. For the same molecule, in the series with MCh response (6 hr and 24 hr post-dose), the “fold more potent at 6 hr and 24 hr compared to 1.5 hr potency” value is “about 2 fold”. Moreover, the “time of peak bronchoprotection post-dose” value with MCh response (slow onset of effect) was found to be 6 h.

A word on the solubility: it is the dissolved amount per volume that the medium holds. As a reminder, the Ki is a dissociation constant, usually derived from enzyme kinetics or from competition with a known ligand.
